The NIST ThermoML archive (doi:10.1021/acs.jced.7b00433)

Assay: xn = mol fraction of the nth substance listed
Conditions: Drop volume

CCC(N)C(=O)O (stereo not drawn) [(.+-.)-α-aminobutyric acid] + O
surface tension liquid-gas [mN/m]
Conditions	x1 = 0.000177	x1 = 0.000351	x1 = 0.000702	x1 = 0.001053	x1 = 0.001403	x1 = 0.001754	x1 = 0.002103	x1 = 0.002641
293.15 K	72.49	72.49	72.48	72.47	72.46	72.45	72.44	72.43
298.15 K	71.8	71.79	71.77	71.75	71.74	71.72	71.71	71.69
303.15 K	71.08	71.07	71.05	71.02	71	70.98	70.96	70.93
308.15 K	70.25	70.24	70.21	70.19	70.15	70.13	70.09	70.07
313.15 K	69.47	69.45	69.42	69.39	69.35	69.31	69.28	69.22

O [water] + CCCCC(N)C(=O)O
x2 = 0
Conditions	surface tension liquid-gas [mN/m]
293.15 K	72.5
298.15 K	71.73
303.15 K	71
308.15 K	70.23
313.15 K	69.42

NCC(=O)O [2-aminoacetic acid] + O
surface tension liquid-gas [mN/m]
Conditions	x1 = 0.000175	x1 = 0.000349	x1 = 0.000698	x1 = 0.001043	x1 = 0.001394	x1 = 0.00174	x1 = 0.002087	x1 = 0.002641
293.15 K	72.47	72.49	72.52	72.57	72.62	72.68	72.73	72.81
298.15 K	71.75	71.79	71.86	71.92	71.99	72.05	72.11	72.2
303.15 K	71.04	71.12	71.23	71.33	71.43	71.54	71.64	71.76
308.15 K	70.26	70.38	70.52	70.66	70.81	70.95	71.09	71.25
313.15 K	69.49	69.63	69.79	69.95	70.11	70.27	70.43	70.61

O [water] + CCC(N)C(=O)O
x2 = 0
Conditions	surface tension liquid-gas [mN/m]
293.15 K	72.5
298.15 K	71.73
303.15 K	71.1
308.15 K	70.27
313.15 K	69.5

CCCC(N)C(=O)O (stereo not drawn) [DL-2-aminopentanoic acid] + O
surface tension liquid-gas [mN/m]
Conditions	x1 = 0.000173	x1 = 0.000347	x1 = 0.000561	x1 = 0.00104	x1 = 0.001386	x1 = 0.001733	x1 = 0.002079	x1 = 0.002641
293.15 K	72.55	72.51	72.43	72.37	72.31	72.25	72.16	72.06
298.15 K	71.84	71.8	71.71	71.63	71.53	71.47	71.41	71.25
303.15 K	71.16	71.13	71.01	70.91	70.79	70.71	70.65	70.5
308.15 K	70.35	70.31	70.2	70.1	70.02	69.85	69.78	69.63
313.15 K	69.39	69.34	69.22	69.07	69	68.86	68.75	68.58

O [water] + CC(N)C(=O)O
x2 = 0
Conditions	surface tension liquid-gas [mN/m]
293.15 K	72.5
298.15 K	71.73
303.15 K	71.04
308.15 K	70.3
313.15 K	69.42

O [water] + CCCC(N)C(=O)O
x2 = 0
Conditions	surface tension liquid-gas [mN/m]
293.15 K	72.58
298.15 K	71.73
303.15 K	71.21
308.15 K	70.4
313.15 K	69.46

CC(N)C(=O)O (stereo not drawn) [DL-2-aminopropanoic acid] + O
surface tension liquid-gas [mN/m]
Conditions	x1 = 0.000176	x1 = 0.000353	x1 = 0.000705	x1 = 0.001055	x1 = 0.001406	x1 = 0.001752	x1 = 0.002105	x1 = 0.002642
293.15 K	72.52	72.53	72.55	72.58	72.59	72.62	72.64	72.68
298.15 K	71.83	71.86	71.9	71.95	72	72.07	72.1	72.18
303.15 K	71.11	71.15	71.25	71.35	71.44	71.5	71.61	71.72
308.15 K	70.4	70.42	70.57	70.7	70.83	70.94	71.09	71.28
313.15 K	69.48	69.59	69.73	69.87	70.02	70.2	70.36	70.57

O [water] + NCC(=O)O
x2 = 0
Conditions	surface tension liquid-gas [mN/m]
293.15 K	72.45
298.15 K	71.73
303.15 K	71
308.15 K	70.22
313.15 K	69.45

CCCCC(N)C(=O)O (stereo not given) [2-aminohexanoic acid] + O
surface tension liquid-gas [mN/m]
Conditions	x1 = 0.000156	x1 = 0.000311	x1 = 0.000524	x1 = 0.000699	x1 = 0.000873	x1 = 0.001048	x1 = 0.001222	x1 = 0.001411
293.15 K	72.4	72.21	72.02	71.85	71.71	71.48	71.28	71.09
298.15 K	71.55	71.28	71.14	71	70.82	70.59	70.42	70.18
303.15 K	70.74	70.54	70.43	70.22	70.06	69.79	69.65	69.44
308.15 K	69.9	69.8	69.62	69.44	69.23	69	68.8	68.59
313.15 K	69.2	69.02	68.91	68.68	68.47	68.18	68.02	67.87
